From US6432433B1, “Liquid biocidal composition of a formaldehyde adduct and an isothiazolone and method of use” (ISP Investments Inc., priority 2000, dated 2002)
Several values for one entry are separate records, joined by “and”; a condition that tells them apart may be missing. Equal entries are not always repeated. Where two headings read alike, the source gives them in different places.

How the values were obtained:
Assay type in all cases: cell-based
[1] = test system: Bacillus subtilis (ATCC 27328); experiment: MIC on Tryptic Soy Agar; settings: for MIC: Bacillus subtilis, read-out: MIC end point, compound alone (QA / QB)
Description: (§1) The agar was inoculated to contain about 1×10^6 CFU/ml bacterial cells or fungal spores.
(§2) The MIC were taken as end points of activity. End points for the mixture of NMPFA (DMO, MBO or HMAE) and BIT were then compared with the end points for the pure active compound when employed individually.
(§3) Synergism was determined by a commonly used method described by Kull, A. C., Eisman, P. C, Sylwestrowicz ,H., D. and Mayer, R. L. (1961). Applied Microbiology, 9:538 using the ratio determined by:
(§4) Qa/QA+Qb/QB=Synergy Index (SI)
(§5) where QA is the concentration of the formaldehyde adduct in parts per million (ppm), acting alone, which produced an end point. Qa is the concentration of the formaldehyde adduct in ppm, in the mixture, which produced an end point. QB is the concentration of BIT in ppm, acting alone, which produced an end point and Qb is the concentration of BIT in ppm, in the mixture, which produced an end point.
(§6) When the sum of Qa/QA+Qb/QB is greater than one, antagonism is indicated. When the sum is equal to one, additivity is indicated.

[2] = test system: Gliocladium virens (ATCC 9645); experiment: MIC on Potato Dextrose Agar; settings: for MIC: Trichoderma virens
Description: as §1, §2, §3, §4, §5, §6

[3] = test system: Enterobacter cloacae (ATCC 13047); experiment: MIC on Tryptic Soy Agar; settings: E. cloacae; TSA, 32° C., 48 hours
Description: as §1, §2, §3, §4, §5, §6

[4] = test system: Escherichia coli (ATCC 11229); experiment: MIC on Tryptic Soy Agar; settings: E. coli; TSA, 32° C., 48 hours
Description: as §1, §2, §3, §4, §5, §6

[5] = test system: Pseudomonas aeruginosa (ATCC 10145); experiment: MIC on Tryptic Soy Agar; settings: P. aeruginosa; TSA, 32° C., 48 hours
Description: as §1, §2, §3, §4, §5, §6

[6] = test system: Staphylococcus aureus (ATCC 6538); experiment: MIC on Tryptic Soy Agar; settings: S. aureus; TSA, 32° C., 48 hours
Description: as §1, §2, §3, §4, §5, §6

[7] = test system: Aspergillus niger (ATCC 6275); experiment: MIC on Potato Dextrose Agar; settings: A. niger; PDA, 28°, 7-10 days
Description: as §1, §2, §3, §4, §5, §6

[8] = test system: Aureobasidium pullulans (ATCC 9348); experiment: MIC on Potato Dextrose Agar; settings: A. pullulans; PDA, 28°, 7-10 days
Description: as §1, §2, §3, §4, §5, §6

[9] = test system: Chaetomium globosum (ATCC 6205); experiment: MIC on Potato Dextrose Agar; settings: C. globosum; PDA, 28°, 7-10 days
Description: as §1, §2, §3, §4, §5, §6

[10] = test system: Penicillium funiculosum (ATCC 11797); experiment: MIC on Potato Dextrose Agar; settings: P. funiculosum; PDA, 28°, 7-10 days
Description: as §1, §2, §3, §4, §5, §6

[11] = test system: mixed culture of P. aeruginosa, E. cloacae, B. subtilis, B. megaterium and B. licheniformis; experiment: In-can preservation of latex paint (ASTM D2574-97), two challenges; settings: polyvinyl acrylic paint, 32° C., mixed inoculum, rechallenged after 7 days
Description: The efficacy of each individual compound or their combination was measured in a latex paint artificially contaminated with a mixed inoculum. The microbiological evaluations shown as examples, are based on ASTM D2574-97, “Resistance of emulsion paints in the container to the attack of microorganisms”. Briefly, paint samples (e.g. polyvinyl acrylic, PCL 717) were prepared to contain different concentrations of each compound or their mixtures in different concentrations and ratios. Each paint sample thus prepared was then inoculated with a mixed culture of P. aeruginosa, E. cloacae, B. subtilis, B. megaterium and B. licheniformis (final concentration of about 10^6 CFU/ml) and rechallenged after 7 days (final concentration of about 10^7 CFU/ml). Paint samples were incubated at 32° C. for the duration of the test and sampled for the presence of viable bacteria on TSA plates. A paint sample was considered appropriately preserved if no bacterial growth was detected after six days in both challenge assays. […]
1. The end-point activity in ppm obtained when no viable bacteria was detected after both challenges in a paint sample containing the compound A alone (QA), for compound A in the mixture (Qa), for compound B alone (QB) or for compound B in the mixture (Qb). […]
3. The calculated Synergy Index (SI), as described above

[12] = B. subtilis, TSA, 32° C., 48 hours

SMILES	MIC ([1]; ATCC27328, B. subtilis, TSA, 32° C., 48 hours) [µg/mL]	MIC ([2]; ATCC9645, G. virens, PDA, 28°, 7-10 days, read-out: MIC end point, compound alone (QA / QB)) [µg/mL]	MIC end point, compound alone (QA / QB) [1, 12]	MIC end point, compound alone (QA / QB) [3]	MIC end point, compound alone (QA / QB) [4]	MIC end point, compound alone (QA / QB) [5]	MIC end point, compound alone (QA / QB) [6]	MIC end point, compound alone (QA / QB) [7]	MIC end point, compound alone (QA / QB) [8] [ppm]	MIC end point, compound alone (QA / QB) [9]	MIC end point, compound alone (QA / QB) ([2]; G. virens, PDA, 28°, 7-10 days)	MIC end point, compound alone (QA / QB) [10] [ppm]	End-point activity (no viable bacteria detected after both challenges), compound alone (QA / QB) [11]	MIC ([1]; ATCC27328, 48 h) [µg/mL]	MIC ([2]; ATCC9645, read-out: MIC end point, compound alone (QA / QB)) [µg/mL]
CC1(C)COCN1 [DMO, 4,4-dimethyloxazolidine]	385	770													
O=c1[nH]sc2ccccc12 [BIT, 1,2-benzisothiazolin-3-one, reference compound]			25.0 ppm and 25 ppm	2500 ppm	50.0 ppm	250.0 ppm	50 ppm	250 ppm	50	250 ppm	100 ppm	25	170.0 ppm		
OCCNCO [HMAE, 2-[(hydroxymethyl)amino]ethanol]														250	1000
CC(O)CN(C)CC(C)OCO (centres unmarked) [NMPFA, N-methyl-2-hydroxymethyleneoxypropyl-2′-hydroxypropylamine]			500 ppm	1,000 ppm	1,000 ppm	1,000 ppm	1,000 ppm	1,000 ppm	500	>2,000 ppm	>2,000 ppm	250	1,000 ppm		
